The source of these data is publication PMC3265452 (PLoS Neglected Tropical Diseases, 2012).

Where a name gives a salt, the structure may show the parent alone.

Sequence of AaDOP2 (H6D5H2 1-476): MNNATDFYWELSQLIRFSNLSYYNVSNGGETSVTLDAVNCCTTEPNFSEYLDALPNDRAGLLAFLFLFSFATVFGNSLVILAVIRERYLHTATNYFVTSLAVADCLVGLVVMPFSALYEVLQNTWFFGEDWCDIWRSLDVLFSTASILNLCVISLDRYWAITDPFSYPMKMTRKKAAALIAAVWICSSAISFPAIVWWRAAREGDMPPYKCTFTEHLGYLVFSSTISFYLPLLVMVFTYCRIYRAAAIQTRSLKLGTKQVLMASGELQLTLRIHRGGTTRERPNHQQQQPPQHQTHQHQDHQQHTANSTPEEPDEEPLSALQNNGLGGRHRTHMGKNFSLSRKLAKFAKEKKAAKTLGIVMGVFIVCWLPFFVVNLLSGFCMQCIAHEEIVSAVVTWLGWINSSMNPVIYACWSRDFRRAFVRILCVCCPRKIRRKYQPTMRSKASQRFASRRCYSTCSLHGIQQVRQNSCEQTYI

The first experiment has as its target AaDOP2 (Aedes aegypti, UniProt H6D5H2). Briefly: AaDOP2 antagonist screen of the LOPAC1280 library (HEK-CRELuc-Aadop2 cells, luminescence). The class given is cell-based.
Settings: not given
As to `Cc1ccc(S(=O)(=O)NC(=O)NN2CCCCCC2)cc1` [Compound 1160, Tolazamide], the “Compound effect (percent receptor signaling in presence of test compound, relative lux units relative to the SCH23390 control)” value is given as 107.
Still for that read-out and setting: the same measure for `CN(C)CCCN1c2ccccc2Sc2ccc(C(F)(F)F)cc21` [Compound 1163, Triflupromazine hydrochloride]: 12; for `CC(CN(C)C)CN1c2ccccc2CCc2ccccc21` (stereo not drawn) [Compound 1164, Trimipramine maleate]: 13.
On the same count and under the same terms, the same measure for `N#C/C(=C\c1ccc(O)c(O)c1)C(=O)NCc1ccccc1` [Compound 1165, Tyrphostin AG 490]: 96; for `COc1cc2nc(N3CCN(C(=O)OCc4ccccc4)[C@H](C(=O)NC(C)(C)C)C3)nc(N)c2cc1OC` [Compound 1167, L-765,314]: 112; for `Nc1nc(N)c2nc(-c3ccccc3)c(N)nc2n1` [Compound 1168, Triamterene]: 115.
Regarding `COc1cc2ncnc(Nc3cccc(Cl)c3)c2cc1OC` [Compound 1169, Tyrphostin AG 1478], the “Compound effect (percent receptor signaling in presence of test compound, relative lux units relative to the SCH23390 control)” value is 88.
On the same count and under the same terms, the same measure for `c1ccc2c(c1)CCCC2C1=NCCN1` (stereo not drawn) [Compound 1170, Tetrahydrozoline hydrochloride]: 102; for `N#C/C(=C\c1ccc(O)c(O)c1)C(=O)Nc1ccccc1` [Compound 1171, Tyrphostin AG 494]: 83.
On the same count and under the same terms, the same measure for `C[C@@H](NC(=O)/C(C#N)=C/c1ccc(O)c(O)c1)c1ccccc1` [Compound 1174, Tyrphostin AG 527]: 81; for `Cn1cnc2c1c(=O)[nH]c(=O)n2C` [Compound 1175, Theobromine]: 110.
Same read-out and setting: the same measure for `N#C/C(=C\c1ccc(O)c(O)c1)C(=O)N1CCc2ccccc21` [Compound 1177, Tyrphostin AG 528]: 78; for `COc1cc2nc(N3CCN(C(=O)C4CCCO4)CC3)nc(N)c2cc1OC` (stereo not drawn) [Compound 1178, Terazosin hydrochloride]: 107; for `N#C/C(=C\c1ccc(O)c(O)c1)C(=O)NCCCNC(=O)/C(C#N)=C/c1ccc(O)c(O)c1` [Compound 1179, Tyrphostin AG 537]: 112.
Take `N#C/C(=C\c1ccc(O)c(O)c1)C(=O)NCCCc1ccccc1` [Compound 1180, Tyrphostin AG 555]: the “Compound effect (percent receptor signaling in presence of test compound, relative lux units relative to the SCH23390 control)” value is reported as 77.
Turning to `N#C/C(=C\c1ccc(O)c(O)c1)C(=O)NCCc1ccccc1` [Compound 1181, Tyrphostin AG 698], the “Compound effect (percent receptor signaling in presence of test compound, relative lux units relative to the SCH23390 control)” value was found to be 82.
Same read-out and setting: the same measure for `N#C/C(=C\c1c[nH]c2ccccc12)C(=O)c1ccc(O)c(O)c1` [Compound 1182, Tyrphostin AG 808]: 101; for `CC(C)(C)NCC(O)c1ccccc1Cl` (stereo not drawn) [Compound 1187, Tulobuterol hydrochloride]: 104.
`O=c1n(CCCN2CCN(c3cccc(Cl)c3)CC2)nc2ccccn12` [Compound 1188, Trazodone hydrochloride]: the “Compound effect (percent receptor signaling in presence of test compound, relative lux units relative to the SCH23390 control)” value is 97.
As to `COc1cc(C=C(C#N)C#N)cc(O)c1O` [Compound 1189, Tyrphostin AG 34], the “Compound effect (percent receptor signaling in presence of test compound, relative lux units relative to the SCH23390 control)” value was determined as 74.
With `C[C@]12C=CC(=O)C=C1CC[C@H]1[C@@H]3C[C@@H](O)[C@](O)(C(=O)CO)[C@@]3(C)C[C@H](O)[C@@]12F` [Compound 1190, Triamcinolone], the “Compound effect (percent receptor signaling in presence of test compound, relative lux units relative to the SCH23390 control)” value is reported as 108.
Still for that read-out and setting: the same measure for `CC(COc1ccc(/C=C/c2ccccc2)cc1)[N+](C)(C)C.[I-]` (stereo not drawn) [Compound 1192, N,N,N-trimethyl-1-(4-trans-stilbenoxy)-2-propylammonium iodide]: 79.
As for `N#CC(C#N)=C(N)/C(C#N)=C/c1ccc(O)cc1` [Compound 1194, Tyrphostin AG 112], the “Compound effect (percent receptor signaling in presence of test compound, relative lux units relative to the SCH23390 control)” value amounted to 118.
For `N#CC(C#N)=Cc1ccc(O)c(O)c1` [Compound 1196, Tyrphostin 23], the “Compound effect (percent receptor signaling in presence of test compound, relative lux units relative to the SCH23390 control)” value came to 79.
On the same count and under the same terms, the same measure for `Cc1ccc(S(=O)(=O)N[C@@H](CCCCN)C(=O)CCl)cc1.Cl` [Compound 1198, Na-p-Tosyl-L-lysine chloromethyl ketone hydrochloride]: 100; for `N#CC(C#N)=Cc1cc(O)c(O)c(O)c1` [Compound 1199, Tyrphostin 25]: 113; for `FC(F)(F)c1ccccc1-n1ccnc1` [Compound 1200, 1-[2-(Trifluoromethyl)phenyl]imidazole]: 86.
The same measure, in the same setting: the same measure for `CC(=O)O[C@H]1C(=O)[C@@]2(C)[C@H]([C@H](OC(=O)c3ccccc3)[C@]3(O)C[C@H](OC(=O)[C@H](O)[C@@H](NC(=O)c4ccccc4)c4ccccc4)C(C)=C1C3(C)C)[C@]1(OC(C)=O)CO[C@@H]1C[C@@H]2O` [Compound 1201, Taxol]: 84.
On the same count and under the same terms, the same measure for `CCCCNc1ccc(C(=O)OCCN(C)C)cc1` [Compound 1202, Tetracaine hydrochloride]: 78; for `N#C/C(=C\c1ccc(O)c(O)c1)C(N)=S` [Compound 1203, Tyrphostin 47]: 61.
`N#CC(C#N)=C(N)/C(C#N)=C/c1cc(O)c(O)c(O)c1` [Compound 1204, Tyrphostin 51]: the “Compound effect (percent receptor signaling in presence of test compound, relative lux units relative to the SCH23390 control)” value came to 122.
The same measure, in the same setting: the same measure for `COc1cc(/C=C(\C#N)C(=O)c2ccc(O)c(O)c2)cc(I)c1O` [Compound 1206, I-OMe-Tyrphostin AG 538]: 96.
Consider `N#C/C(=C\c1ccc(O)c(O)c1)C(=O)c1ccc(O)c(O)c1` [Compound 1207, Tyrphostin AG 538], for which the “Compound effect (percent receptor signaling in presence of test compound, relative lux units relative to the SCH23390 control)” value turned out to be 75.
The same measure, in the same setting: the same measure for `COc1cc(Cc2cnc(N)nc2N)cc(OC)c1OC` [Compound 1208, Trimethoprim]: 92.
For the compound `CNCC[C@@H](Oc1ccccc1C)c1ccccc1` [Compound 1209, Tomoxetine], the “Compound effect (percent receptor signaling in presence of test compound, relative lux units relative to the SCH23390 control)” value is recorded as 79.
For `COC(=O)c1c(-c2cc(OC)c(OC)c(OC)c2)c2ccnc(OCc3ncccn3)c2c(=O)n1Cc1ccnc(C)c1` [Compound 1210, T-0156], the “Compound effect (percent receptor signaling in presence of test compound, relative lux units relative to the SCH23390 control)” value came out at 56.
Still for that read-out and setting: the same measure for `CN1[C@@H]2CC[C@H]1C[C@@H](OC(=O)c1cc(Cl)cc(Cl)c1)C2` [Compound 1211, 3-Tropanyl-3,5-dichlorobenzoate]: 97; for `C/C=C(/C)C(=O)O[C@H]1C(C)=C2[C@H]([C@@H]1OC(=O)CCCCCCC)[C@@](C)(OC(C)=O)C[C@H](OC(=O)CCC)[C@@]1(O)[C@H]2OC(=O)[C@@]1(C)O` [Compound 1215, Thapsigargin]: 103; for `N#CC(C#N)=Cc1ccc([N+](=O)[O-])c(O)c1` [Compound 1216, Tyrphostin AG 126]: 100.
Same read-out and setting: the same measure for `CC/C(=C(\c1ccccc1)c1ccc(OCCN(C)C)cc1)c1ccccc1` [Compound 1217, Tamoxifen citrate]: 87.

Staying with this experiment, now noted: 10 µM compound, 300 nM dopamine, 2 hr; hit = compound effect <20.
On to `CC(C)(C)NCC(O)c1cc(O)cc(O)c1.CC(C)(C)NCC(O)c1cc(O)cc(O)c1.O=S(=O)(O)O` (stereo not drawn) [Compound 1161, Terbutaline hemisulfate], for which the “Compound effect (percent receptor signaling in presence of test compound, relative lux units relative to the SCH23390 control)” value amounted to 119%.
For the compound `C/C(=C\c1ccc(C(=O)O)cc1)c1ccc2c(c1)C(C)(C)CCC2(C)C` [Compound 1166, TTNPB], the “Compound effect (percent receptor signaling in presence of test compound, relative lux units relative to the SCH23390 control)” value was determined as 98%.
Same read-out and setting: the same measure for `Cc1ccc(S(=O)(=O)N[C@@H](Cc2ccccc2)C(=O)CCl)cc1` [Compound 1172, N-p-Tosyl-L-phenylalanine chloromethyl ketone]: 83%; for `CC(O)C(O)[C@H]1CNc2nc(N)[nH]c(=O)c2N1.Cl.Cl` (stereo partly drawn) [Compound 1173, (6R)-5,6,7,8-Tetrahydro-L-biopterin hydrochloride]: 109%.
Same read-out and setting: the same measure for `Cc1ccc(/C(=C\CN2CCCC2)c2ccccn2)cc1.Cl` [Compound 1193, Triprolidine hydrochloride]: 78%.
In the case of `S=C([S-])OC1CC2CC1C1CCCC21.[K+]` [Compound 1213, D-609 potassium], the “Compound effect (percent receptor signaling in presence of test compound, relative lux units relative to the SCH23390 control)” value is given as 87%.

The same experiment, now with this note: read-out: % of the SCH23390 effect (percent inhibition of receptor response relative to the SCH23390 control).
In the case of `CN(C)CCCN1c2ccccc2Sc2ccc(C(F)(F)F)cc21` [Compound 1163, Triflupromazine hydrochloride], the inhibition at 10 µM came out at 88%.
Still for that read-out and setting: the same measure for `CC(CN(C)C)CN1c2ccccc2CCc2ccccc21` (stereo not drawn) [Compound 1164, Trimipramine maleate]: 87%.
